Biological target: T1, human V1A receptor (Homo sapiens, UniProt P37288)
T1 construct: expressed in transfected cells; host or cells: CHO cells (CHO-hV1A line provided by Marc Thibonnier, Case Western Reserve University)
Assay: V1A filter binding assay ([3H]-AVP binding to CHO-hV1A membranes)
Protocol: 1.0 V1A Filter Binding Assay
Receptor binding assays were performed on cellular membranes prepared from CHO cells stably expressing the human V1A receptor, (CHO-hV1A). The CHO-hV1A cell line was kindly provided under a licensing agreement by Marc Thibonnier, Dept. of Medicine, Case Western Reserve University School of Medicine, Cleveland, Ohio. CHO-hV1A cells were routinely maintained at 37° C. in humidified atmosphere with 5% CO2 in DMEM/Hams F12 nutrient mix supplemented with 10% fetal bovine serum, 2 mM L-glutamine, 15 mM HEPES and 400 μg/ml G418. For bulk production of cell pellets, adherent CHO-hV1A cells were grown to confluency of 90-100% in 850 cm^2 roller bottles containing a medium of DMEM/Hams F12 Nutrient Mix supplemented with 10% fetal bovine serum, 2 mM L-glutamine and 15 mM HEPES. Confluent CHO-hV1A cells were washed with phosphate-buffered saline (PBS), harvested into ice cold PBS and centrifuged at 1,000 rpm. Cell pellets were stored at −80° C. until use. Cell pellets were thawed on ice and homogenised in membrane preparation buffer consisting of 50 mM Tris-HCl, pH 7.4, 5 mM MgCl2 and supplemented with a protease inhibitor cocktail, (Roche). The cell homogenate was centrifuged at 1000 rpm, 10 min, 4° C. and the supernatant was removed and stored on ice. The remaining pellet was homogenised and centrifuged as before. The supernatants were pooled and centrifuged at 25,000×g for 30 min at 4° C. […] Protein concentration was determined using Bradford reagent and BSA as a standard.
Protein linearity followed by saturation binding studies were performed on each new batch of membrane. […] Saturation binding studies were then performed using various concentrations of [^3H]-arginine vasopressin, [^3H]-AVP (0.05 nM-100 nM) and the Kd and Bmax determined.
Compounds were tested for their effects on [^3H]-AVP binding to CHO-hV1A membranes, (^3H-AVP; specific activity 65.5 Ci/mmol; NEN Life Sciences). […] The plates were sealed and counted on a TopCount Microplate Scintillation Counter (Packard Instruments). Non-specific binding (NSB) was determined using 1 μM unlabelled d(CH2)5Tyr(Me)AVP ([β-mercapto-β,β-cyclopentamethylenepropionyl, 0-Me-Tyr^2,Arg^8]-vasopressin ) (βMCPVP), (Sigma). The radioligand binding data was analysed using a four parameter logistic equation with the min forced to 0%. […] Specific binding was calculated by subtracting the mean NSB cpm from the mean Total cpm. For test compounds the amount of ligand bound to the receptor was expressed as % bound=(sample cpm−mean NSB cpm)/specific binding cpm×100. […] The inhibitory dissociation constant (Ki) was calculated using the Cheng-Prusoff equation: Ki=IC50/(1+[L]/Kd) where [L] is the concentration of ligand present in the well and Kd is the dissociation constant of the radioligand obtained from Scatchard plot analysis. […]

T1 sequence (P37288 whole entry): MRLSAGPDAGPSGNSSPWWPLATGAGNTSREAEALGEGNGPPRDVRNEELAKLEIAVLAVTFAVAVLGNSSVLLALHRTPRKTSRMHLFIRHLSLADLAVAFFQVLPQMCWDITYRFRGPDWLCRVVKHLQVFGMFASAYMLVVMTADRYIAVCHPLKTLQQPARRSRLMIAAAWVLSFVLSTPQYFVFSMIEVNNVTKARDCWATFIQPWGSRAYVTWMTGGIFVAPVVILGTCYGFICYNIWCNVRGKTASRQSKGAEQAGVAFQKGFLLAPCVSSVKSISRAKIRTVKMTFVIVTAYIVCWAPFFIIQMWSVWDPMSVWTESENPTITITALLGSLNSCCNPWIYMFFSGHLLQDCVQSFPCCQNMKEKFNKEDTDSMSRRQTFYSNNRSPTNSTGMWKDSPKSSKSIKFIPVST

| SMILES | Ki |
| --- | --- |
| COCc1nnc(N2Cc3ccccc3C2)n1-c1ccc(Cl)cc1 [Example 1, 2-[4-(4-Chlorophenyl)-5-(methoxymethyl)-4H-1,2,4-triazol-3-yl]isoindoline] | 9.69 nM |
| Cc1nnc(N2CCC3(CC2)OCc2ccccc23)n1-c1ccc(Cl)cc1 [Example 6, 1′-[4-(4-Chlorophenyl)-5-methyl-4H-1,2,4-triazol-3-yl]-3H-spiro[2-benzofuran-1,4′-piperidine]] | 6.58 nM |
| Clc1ccc(-n2c(Cn3nccn3)nnc2N2Cc3ccccc3C2)cc1 [Example 8, 2-[4-(4-Chlorophenyl)-5-(2H-1,2,3-triazol-2-ylmethyl)-4H-1,2,4-triazol-3-yl]isoindoline] | 0.88 nM |
| OCc1ccc2c(c1)CN(c1nnc(Cn3nccn3)n1-c1ccc(Cl)cc1)C2 [Example 10, {2-[4-(4-Chlorophenyl)-5-(2H-1,2,3-triazol-2-ylmethyl)-4H-1,2,4-triazol-3-yl]-2,3-dihydro-1H-isoindol-5-yl}methanol] | 0.47 nM |

Source: US20080234252A1, “Compounds Useful in Therapy” (Pfizer Inc, priority 2005, published 2008)
